Species: Rattus norvegicus
Experiment: DrugMatrix - Regimen: Daily Repeat
Assay type: toxicity, organism-based, Sprague-Dawley
Set-up: regimen Daily Repeat, gender Male, age 6-8 weeks
Conditions: in vivo, po, route oral GAVAGE, vehicle .5 % CMC; for ABSOLUTE BASOPHIL / ABSOLUTE EOSINOPHIL / ABSOLUTE LYMPHOCYTE / ABSOLUTE MONOCYTE / ABSOLUTE SEGMENTED NEUTROPHIL / BASOPHIL / EOSINOPHIL / ERYTHROCYTE COUNT / HEMATOCRIT / HEMOGLOBIN / LEUKOCYTE COUNT / LYMPHOCYTE / MEAN CORPUSCULAR HEMOGLOBIN / MEAN CORPUSCULAR HEMOGLOBIN CONCENTRATION / MEAN CORPUSCULAR VOLUME / MONOCYTE / NEUTROPHIL / NUCLEATED RED BLOOD CELLS / PLATELET COUNT: tissue Blood; for ALANINE AMINOTRANSFERASE / ALBUMIN / ALKALINE PHOSPHATASE / ASPARTATE AMINOTRANSFERASE / BLOOD UREA NITROGEN / CARBON DIOXIDE / CHLORIDE / CHOLESTEROL / CREATINE PHOSPHOKINASE / CREATININE / GLUCOSE / LACTATE DEHYDROGENASE / LIPASE / PHOSPHORUS / POTASSIUM / SODIUM / TOTAL BILIRUBIN / TOTAL PROTEIN / URIC ACID: tissue Plasma
[1] = 100 mg/kg, 120 h, dose level Low, time 5 day
[2] = 501 mg/kg, 72 h, dose level High, time 3 day
[3] = 501 mg/kg, 120 h, dose level High, time 5 day

CCc1ccc(C(=O)C(C)CN2CCCCC2)cc1 (centres undefined) [EPERISONE]
ABSOLUTE BASOPHIL [1]: 0 CELLS/uL
ABSOLUTE EOSINOPHIL [1]: 0 CELLS/uL
ABSOLUTE LYMPHOCYTE [1]: 13749 CELLS/uL
ABSOLUTE MONOCYTE [1]: 246.33 CELLS/uL
ABSOLUTE SEGMENTED NEUTROPHIL [1]: 1338 CELLS/uL
BASOPHIL [1]: 0%
EOSINOPHIL [1]: 0%
ERYTHROCYTE COUNT [1]: 5.46 x10E6/uL
HEMATOCRIT [1]: 34.27%
HEMOGLOBIN [1]: 13.2 G/DL
LEUKOCYTE COUNT [1]: 15.33 x10E3/uL
LYMPHOCYTE [1]: 89.67%
MEAN CORPUSCULAR HEMOGLOBIN [1]: 24.17 pg
MEAN CORPUSCULAR HEMOGLOBIN CONCENTRATION [1]: 38.53 G/DL
MEAN CORPUSCULAR VOLUME [1]: 62.83 fL
MONOCYTE [1]: 1.67%
NEUTROPHIL [1]: 8.67%
NUCLEATED RED BLOOD CELLS [1]: 0 /100WBC
PLATELET COUNT [1]: 1278.33 x10E3/uL
ALANINE AMINOTRANSFERASE [1]: 50 u/L
ALBUMIN [1]: 4.27 G/DL
ALKALINE PHOSPHATASE [1]: 325.67 u/L
ASPARTATE AMINOTRANSFERASE [1]: 101.33 u/L
BLOOD UREA NITROGEN [1]: 17.33 mg/dL
CARBON DIOXIDE [1]: 25.33 mmol/L
CHLORIDE [1]: 106 MEQ/L
CHOLESTEROL [1]: 66.33 mg/dL
CREATINE PHOSPHOKINASE [1]: 609 u/L
CREATININE [1]: 0.21 mg/dL
GLUCOSE [1]: 159 mg/dL
LACTATE DEHYDROGENASE [1]: 465 u/L
LIPASE [1]: 9.67 u/L
PHOSPHORUS [1]: 13.17 mg/dL
POTASSIUM [1]: 6.21 MEQ/L
SODIUM [1]: 144.2 MEQ/L
TOTAL BILIRUBIN [1]: 0.13 mg/dL
TOTAL PROTEIN [1]: 5.9 G/DL
URIC ACID [1]: 1.77 mg/dL
ABSOLUTE BASOPHIL [2]: 0 CELLS/uL
ABSOLUTE EOSINOPHIL [2]: 0 CELLS/uL
ABSOLUTE LYMPHOCYTE [2]: 13225.33 CELLS/uL
ABSOLUTE MONOCYTE [2]: 319.33 CELLS/uL
ABSOLUTE SEGMENTED NEUTROPHIL [2]: 888.67 CELLS/uL
BASOPHIL [2]: 0%
EOSINOPHIL [2]: 0%
ERYTHROCYTE COUNT [2]: 5.61 x10E6/uL
HEMATOCRIT [2]: 35.1%
HEMOGLOBIN [2]: 13.27 G/DL
LEUKOCYTE COUNT [2]: 14.43 x10E3/uL
LYMPHOCYTE [2]: 91.33%
MEAN CORPUSCULAR HEMOGLOBIN [2]: 23.63 pg
MEAN CORPUSCULAR HEMOGLOBIN CONCENTRATION [2]: 37.83 G/DL
MEAN CORPUSCULAR VOLUME [2]: 62.53 fL
MONOCYTE [2]: 2.33%
NEUTROPHIL [2]: 6.33%
NUCLEATED RED BLOOD CELLS [2]: 0 /100WBC
PLATELET COUNT [2]: 1433.33 x10E3/uL
ALANINE AMINOTRANSFERASE [2]: 58.67 u/L
ALBUMIN [2]: 3.97 G/DL
ALKALINE PHOSPHATASE [2]: 399 u/L
ASPARTATE AMINOTRANSFERASE [2]: 91.67 u/L
BLOOD UREA NITROGEN [2]: 14.33 mg/dL
CARBON DIOXIDE [2]: 25 mmol/L
CHLORIDE [2]: 103.67 MEQ/L
CHOLESTEROL [2]: 64.67 mg/dL
CREATINE PHOSPHOKINASE [2]: 345 u/L
CREATININE [2]: 0.23 mg/dL
GLUCOSE [2]: 157.67 mg/dL
LACTATE DEHYDROGENASE [2]: 414.67 u/L
LIPASE [2]: 9 u/L
PHOSPHORUS [2]: 11.17 mg/dL
POTASSIUM [2]: 6.18 MEQ/L
SODIUM [2]: 143.13 MEQ/L
TOTAL BILIRUBIN [2]: 0.2 mg/dL
TOTAL PROTEIN [2]: 5.33 G/DL
URIC ACID [2]: 2.03 mg/dL
ABSOLUTE BASOPHIL [3]: 0 CELLS/uL
ABSOLUTE EOSINOPHIL [3]: 46.67 CELLS/uL
ABSOLUTE LYMPHOCYTE [3]: 15630.33 CELLS/uL
ABSOLUTE MONOCYTE [3]: 287 CELLS/uL
ABSOLUTE SEGMENTED NEUTROPHIL [3]: 969.33 CELLS/uL
BASOPHIL [3]: 0%
EOSINOPHIL [3]: 0.33%
ERYTHROCYTE COUNT [3]: 5.98 x10E6/uL
HEMATOCRIT [3]: 36.77%
HEMOGLOBIN [3]: 13.93 G/DL
LEUKOCYTE COUNT [3]: 16.93 x10E3/uL
LYMPHOCYTE [3]: 92.33%
MEAN CORPUSCULAR HEMOGLOBIN [3]: 23.33 pg
MEAN CORPUSCULAR HEMOGLOBIN CONCENTRATION [3]: 37.93 G/DL
MEAN CORPUSCULAR VOLUME [3]: 61.5 fL
MONOCYTE [3]: 1.67%
NEUTROPHIL [3]: 5.67%
NUCLEATED RED BLOOD CELLS [3]: 0 /100WBC
PLATELET COUNT [3]: 1391 x10E3/uL
ALANINE AMINOTRANSFERASE [3]: 69 u/L
ALBUMIN [3]: 4.43 G/DL
ALKALINE PHOSPHATASE [3]: 394.33 u/L
ASPARTATE AMINOTRANSFERASE [3]: 96.33 u/L
BLOOD UREA NITROGEN [3]: 16 mg/dL
CARBON DIOXIDE [3]: 28 mmol/L
CHLORIDE [3]: 106.33 MEQ/L
CHOLESTEROL [3]: 63.33 mg/dL
CREATINE PHOSPHOKINASE [3]: 1265 u/L
CREATININE [3]: 0.3 mg/dL
GLUCOSE [3]: 145.67 mg/dL
LACTATE DEHYDROGENASE [3]: 187.33 u/L
LIPASE [3]: 9.33 u/L
PHOSPHORUS [3]: 12.2 mg/dL
POTASSIUM [3]: 6.24 MEQ/L
SODIUM [3]: 145.8 MEQ/L
TOTAL BILIRUBIN [3]: 0.2 mg/dL
TOTAL PROTEIN [3]: 6.07 G/DL
URIC ACID [3]: 1.97 mg/dL

Reference: ChEMBL document CHEMBL3885881, “DrugMatrix”
